{
  "source": "patent US9210928B2",
  "about": "“Plant development control composition” (Syngenta Crop Protection, LLC, priority 2008, dated 2015)",
  "key": {"[1]": {"biological_target": "LeCCD1a (Solanum lycopersicum, UniProt Q6E4P5)", "sequence (Q6E4P5 1-545)": "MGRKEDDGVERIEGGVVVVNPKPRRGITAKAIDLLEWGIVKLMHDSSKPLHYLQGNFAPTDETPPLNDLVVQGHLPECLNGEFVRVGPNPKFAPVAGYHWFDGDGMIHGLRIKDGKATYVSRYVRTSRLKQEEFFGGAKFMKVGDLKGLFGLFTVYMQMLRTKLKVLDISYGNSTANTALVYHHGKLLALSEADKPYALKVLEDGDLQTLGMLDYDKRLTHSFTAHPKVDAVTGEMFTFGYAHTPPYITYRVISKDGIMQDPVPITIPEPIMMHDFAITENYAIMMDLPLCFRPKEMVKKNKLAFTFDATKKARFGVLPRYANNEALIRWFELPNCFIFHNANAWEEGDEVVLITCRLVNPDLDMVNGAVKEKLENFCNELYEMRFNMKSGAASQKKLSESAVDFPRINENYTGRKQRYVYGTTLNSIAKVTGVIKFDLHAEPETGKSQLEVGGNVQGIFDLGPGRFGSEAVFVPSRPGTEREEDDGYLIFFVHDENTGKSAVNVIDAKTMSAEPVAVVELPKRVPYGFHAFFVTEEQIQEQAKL", "experiment": "In vitro LeCCD1a enzyme assay (recombinant cell-free extract, colourimetric, apo-8′-carotenal substrate)", "type": "biochemical, tomato (Solanum lycopersicum)", "conditions": "for inhibition at 100 µM: read-out: LeCCD1a (9,10/9′,10′) Inhibition @ 100 μM (%)", "method": "In vitro LeCCD1a enzyme assay—We over-expressed LeCCD1a in E. coli, as a GST-fusion protein (supplemental methods). The in vitro assay of LeCCD1a was based on reported methods (37), and was carried out in a 200 μl total volume in a 96-well microtitre plate, with the signal detected at 485 nm. To prepare substrate solution for each assay, 5 μl of 4% (w/v in ethanol) apo-8′-carotenal (Sigma) was mixed with 25 μl of 4% (w/v in ethanol) β-octylglucoside (Sigma), the ethanol was then evaporated under nitrogen, and the residue dissolved in 150 μl PBS buffer containing 10 mM sodium ascorbate by incubation at 20° C. for 30 min. 50 μl of cell-free extract containing recombinant LeCCD1a was added, and the reactions monitored over 30 min at 20° C.\nFor the production of cell-free extracts of LeCCD1a and LeNCED1, cultures were grown to an OD of 0.6 at 37° C., then isopropyl β-D-1-thiogalactopyranoside (IPTG) was added to 0.2 mM and the cultures grown overnight at 20° C. The cells (200 ml cultures) were harvested by centrifugation (5000 rpm, 10 min) and the pellet re-suspended in 4 ml PBS, 0.1% Triton-X 100. Lysozyme was added to a final concentration of 25 μg ml^−1 and the solution incubated at room temperature for 15 min before sonication (3×30 s at 18Ω) on ice. The lysate was then centrifuged (13000 rpm, 15 min, 4° C.) and the supernatant used for the assay.\nSpecificity of inhibition in vitro for tomato genes LeNCED1 and LeCCD1a—In order to screen the inhibitors against enzymes which cleave carotenoids at the 9,10 position, we used the recombinant tomato LeCCD1a protein (44), because this type of enzyme can be studied using an in vitro colourimetric assay with β-apo-8′-carotenal as substrate (37). To establish the specificity of the inhibitors, they were also tested against the tomato LeNCED1 recombinant protein which cleaves 9-cis carotenoids at the 11,12 position (45). For this enzyme, the cleavage reaction was monitored by C18 reverse phase HPLC, using 9′-cis-neoxanthin as substrate."}, "[2]": {"test_system": "whole Arabidopsis plants", "experiment": "Shoot branching in whole Arabidopsis plants grown in agar", "type": "in vivo", "conditions": "applied to whole plants", "method": "Branching phenotypes of Arabidopsis plants grown in agar media for 45 days supplemented with inhibitor D6. Images are shown: (a) Col-0 (WT) without inhibitor; (b) max3-9 mutant without inhibitor; (c) Col-0 with 100 μM D6. The numbers (d) of rosette branches were quantified. Error bars represent standard error of the mean, n=6 to 12.\nStimulation of shoot branching in whole Arabidopsis plants—Inhibitors were also applied to Arabidopsis whole plants grown under sterile conditions in agar. […] Inhibitor treated plants were intermediate (mean of approximately 2 branches) and so partially mimicked max3-9 (FIG. 6d)."}},
  "data": [
    {"compound": "COc1ccc(C(=O)N(O)Cc2ccccc2)cc1", "note": "[Compound F1, N-benzyl-4-methoxybenzoyl hydroxamic acid]", "values": [
      {"measurement": "inhibition of LeCCD1 in vitro (in words)", "setting": "[1]", "value": "high levels of inhibition of LeCCD1"},
      {"measurement": "inhibition at 100 µM", "setting": "[1]", "value": "> 95", "unit": "%"},
      {"measurement": "unintended effects on whole Arabidopsis plants", "setting": "[2]", "value": "caused bleaching of leaves"}
    ]},
    {"compound": "COc1ccc(C(=O)N(O)Cc2ccc(F)cc2)cc1", "note": "[Compound F2, N-(4-fluorobenzyl)-4-methoxybenzoyl hydroxamic acid]", "values": [
      {"measurement": "inhibition of LeCCD1 in vitro (in words)", "setting": "[1]", "value": "high levels of inhibition of LeCCD1"},
      {"measurement": "inhibition at 100 µM", "setting": "[1]", "value": "> 95", "unit": "%"},
      {"measurement": "unintended effects on whole Arabidopsis plants", "setting": "[2]", "value": "caused bleaching of leaves"}
    ]},
    {"compound": "COc1ccc(C(=O)N(O)Cc2ccccc2)cc1OC", "note": "[Compound F3, N-benzyl-3,4-dimethoxybenzoyl hydroxamic acid]", "values": [
      {"measurement": "LeCCD1a (9,10/9′,10′) Inhibition @ 100 μM (%)", "setting": "[1]; 100 μM inhibitor, E. coli cell extract with recombinant CCD", "value": 50, "unit": "%"}
    ]}
  ]
}
